Measurements taken from ChEMBL document CHEMBL1201862, “PubChem BioAssay data set” (2004).
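Compound exposure: 48 hours, 5 concentrations, 96-well plates. At the GI50, growth is halved.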 Calls of active or inactive are those of the source. Cut-off read from the data, not from the text of the source: active = GI50 up to about 1.1 µM and inactive = higher.

How the values were obtained:
Test in all cases: growth of human tumour cells (NCI), 48 h
[1] = test system: KM-20L2
[2] = test system: DMS-273
[3] = test system: LXFL 529
[4] = test system: M19-MEL
[5] = test system: SNB-78
[6] = test system: HOP-18
[7] = test system: XF498
[8] = test system: DMS-114
[9] = test system: RXF 631

| SMILES | GI50 [1] | GI50 [2] | GI50 [3] | GI50 [4] | GI50 [5] | GI50 [6] | GI50 [7] | GI50 [8] | GI50 [9] |
| --- | --- | --- | --- | --- | --- | --- | --- | --- | --- |
| NC(CSC(c1ccccc1)(c1ccccc1)c1ccccc1)C(=O)O (centres undefined) | 1.82 µM (inactive) | 0.235 µM (active) | 7.76 µM (inactive) | 3.19 µM (inactive) | 2.61 µM (inactive) | 4.14 µM (inactive) | – | – | – |
| Nc1nc[n+](Cc2ccccc2)c2ncn(Cc3ccccc3)c12 | 55.2 µM (inactive) | > 100 µM (inactive) | > 100 µM (inactive) | > 100 µM (inactive) | 75 µM (inactive) | > 100 µM (inactive) | – | – | – |
| O=C(N/N=C(/c1nc2ccc([N+](=O)[O-])cc2[nH]c1=O)C(O)c1ccc([N+](=O)[O-])cc1)c1ccncc1 (centres undefined) | – | – | 53.1 µM (inactive) | > 100 µM (inactive) | > 100 µM (inactive) | > 100 µM (inactive) | > 100 µM (inactive) | 13.4 µM (inactive) | – |
| COC(=O)/C(=N\N)C(C(=O)C(=O)Nc1nnc(S)[nH]1)c1nc2ccc([N+](=O)[O-])cc2nc1O (centres undefined) | > 100 µM (inactive) | > 100 µM (inactive) | > 100 µM (inactive) | > 100 µM (inactive) | > 100 µM (inactive) | > 100 µM (inactive) | – | > 100 µM (inactive) | > 100 µM (inactive) |
| CO[C@@H]1C=C[C@@]23c4cc5c(cc4C(=O)O[C@H]2CN(C)[C@H]3C1)OCO5 | > 100 µM (inactive) | > 100 µM (inactive) | > 100 µM (inactive) | > 100 µM (inactive) | > 100 µM (inactive) | > 100 µM (inactive) | > 100 µM (inactive) | > 100 µM (inactive) | – |
| C=C(Br)C(C)(Br)CCC(Br)C(C)(C)Br (centres undefined) | – | 19.2 µM (inactive) | 20.5 µM (inactive) | 17 µM (inactive) | 26.2 µM (inactive) | > 100 µM (inactive) | – | 17.2 µM (inactive) | – |
| O=C1/C(=C\c2ccccc2)c2ccccc2N1/N=C\c1ccccc1 | > 100 µM (inactive) | > 100 µM (inactive) | – | 97.7 µM (inactive) | > 100 µM (inactive) | > 100 µM (inactive) | > 100 µM (inactive) | > 100 µM (inactive) | – |
| C[N+](C)(C)CC(=O)N/N=C(/Cc1nc2ccc(Cl)cc2nc1O)C1=NS(=O)(=O)c2cc(S(N)(=O)=O)c(Cl)cc2N1 | > 100 µM (inactive) | – | – | > 100 µM (inactive) | – | – | – | > 100 µM (inactive) | – |
| O=C1OC2C=CC1C1(CCOC1=O)C2 (centres undefined) | > 100 µM (inactive) | > 100 µM (inactive) | > 100 µM (inactive) | > 100 µM (inactive) | – | > 100 µM (inactive) | > 100 µM (inactive) | > 100 µM (inactive) | – |
| COc1ccccc1/C=C(\NC(=O)c1ccccc1)c1nc2ccc(Cl)cc2[nH]1 | 48.8 µM (inactive) | 37.1 µM (inactive) | 21.1 µM (inactive) | 32.9 µM (inactive) | 38.9 µM (inactive) | 26.2 µM (inactive) | 34.4 µM (inactive) | 17.2 µM (inactive) | – |
| COc1ccccc1OCC(COC(=O)Nc1ccc(C)cc1)OC(=O)Nc1ccc(C)cc1 (centres undefined) | 23.1 µM (inactive) | 16.7 µM (inactive) | 27.1 µM (inactive) | – | 26.7 µM (inactive) | 18.4 µM (inactive) | – | 14.7 µM (inactive) | 19.4 µM (inactive) |
| COc1ccc(NC(=O)CC(=O)n2nc(-c3ccccc3)c(/N=N/c3ccc(C)cc3)c2-c2ccccc2)cc1 | > 78.2 µM (inactive) | 33.3 µM (inactive) | 40.8 µM (inactive) | 28.9 µM (inactive) | 20.8 µM (inactive) | 24.3 µM (inactive) | 12.4 µM (inactive) | > 49.5 µM (inactive) | 54.5 µM (inactive) |
| O=C1N=C2Sc3ccc4ccccc4c3N2C1=O | 25.4 µM (inactive) | 22.8 µM (inactive) | 18.7 µM (inactive) | 36.1 µM (inactive) | 26.4 µM (inactive) | 15 µM (inactive) | 19.2 µM (inactive) | 39.7 µM (inactive) | 20.8 µM (inactive) |
| CC1(C)COC(C23C4C5C2C2C3C4C52I)=N1 (centres undefined) | > 100 µM (inactive) | – | > 100 µM (inactive) | > 100 µM (inactive) | > 100 µM (inactive) | > 100 µM (inactive) | > 100 µM (inactive) | > 100 µM (inactive) | – |
| CCOC(=O)C1C(=O)c2cccc(OC)c2C2COC(=O)N12 (centres undefined) | > 100 µM (inactive) | > 100 µM (inactive) | > 100 µM (inactive) | > 100 µM (inactive) | – | > 100 µM (inactive) | > 100 µM (inactive) | > 100 µM (inactive) | > 100 µM (inactive) |
| c1ccc(SC(CCCCC(Sc2ccccc2)Sc2ccccc2)Sc2ccccc2)cc1 | > 100 µM (inactive) | > 100 µM (inactive) | > 100 µM (inactive) | > 100 µM (inactive) | > 100 µM (inactive) | – | > 100 µM (inactive) | > 100 µM (inactive) | > 100 µM (inactive) |
| O=c1[nH]nc(-c2ccccc2)c(-c2ccccc2)c1-n1nc(-c2ccccc2)c2ccccc2c1=O | – | 89.5 µM (inactive) | 46.8 µM (inactive) | > 100 µM (inactive) | > 100 µM (inactive) | > 100 µM (inactive) | – | – | – |
| CCCCCCCCCCCCCC(=O)OCC1OC(OC)C(NC(=O)N(CCCl)N=O)C(O)C1O (centres undefined) | 21 µM (inactive) | 12.9 µM (inactive) | 16.3 µM (inactive) | – | 25.5 µM (inactive) | > 100 µM (inactive) | 15.9 µM (inactive) | 18.5 µM (inactive) | 20.9 µM (inactive) |
| Cc1ccc(NC(=O)C(=O)C(C(=O)/C=C/c2ccccc2)C2OC(=O)c3ccccc32)c(C)c1 (centres undefined) | > 100 µM (inactive) | – | > 100 µM (inactive) | > 100 µM (inactive) | > 100 µM (inactive) | – | > 100 µM (inactive) | > 100 µM (inactive) | > 100 µM (inactive) |
| O=[N+]([O-])c1ccc(C2CC(c3ccccc3Cl)=Nc3ccccc3S2)cc1 (centres undefined) | 4.74 µM (inactive) | 4.71 µM (inactive) | 2.84 µM (inactive) | 10.5 µM (inactive) | 16.1 µM (inactive) | 3.3 µM (inactive) | 7.13 µM (inactive) | 2.19 µM (inactive) | 5.74 µM (inactive) |
| CC1/C=C/[C@@]2(C)CCC(C(C)(C)O)C2C(O)C[C@](C)(O)/C=C/C1 (some centres undefined) | > 100 µM (inactive) | > 100 µM (inactive) | > 100 µM (inactive) | – | > 100 µM (inactive) | > 100 µM (inactive) | > 100 µM (inactive) | > 100 µM (inactive) | – |
| COC1C(O)C(C)OC(OC2C(Oc3cccc4c(O)c5c(=O)oc6ccc(C)c7c(=O)oc(c34)c5c67)OC(C)C(O)C2O)C1O (centres undefined) | 2.52 µM (inactive) | 2.1 µM (inactive) | – | 1.04 µM (active) | 2 µM (inactive) | 2.45 µM (inactive) | 0.824 µM (active) | 0.918 µM (active) | – |
| COc1cc2c(c(OC)c1OC)-c1ccc(SC)c(=O)cc1[C@@H](NCc1cccc([N+](=O)[O-])c1)CC2 | < 0.01 µM (active) | < 0.01 µM (active) | < 0.01 µM (active) | < 0.01 µM (active) | < 0.01 µM (active) | > 100 µM (inactive) | < 0.01 µM (active) | < 0.01 µM (active) | < 0.01 µM (active) |
| COc1ccc2oc(-c3ccc(OC)c(OC)c3OC)cc(=O)c2c1 | 24 µM (inactive) | – | 39.4 µM (inactive) | 57 µM (inactive) | – | – | 39.7 µM (inactive) | 31.8 µM (inactive) | – |
| CN(C)CCN1C(=O)c2cccc3cc([N+](=O)[O-])cc(c23)C1=O [MITONAFIDE] | 0.405 µM (active) | 0.0514 µM (active) | 0.682 µM (active) | 0.377 µM (active) | 2 µM (inactive) | 0.652 µM (active) | 0.303 µM (active) | 0.223 µM (active) | 0.171 µM (active) |
